Assay results taken from article PMC12040169 (PLOS Biology, 2025).

assay: in vitro; details: human, hela cells, % viability

First: O=C1NCCCC12CCN(Cc1ccc(F)cc1)CC2 [CBK285345]
Second: O=C(NCCN1CCC(O)(c2cccc(F)c2)CC1)C1CCCC1 [CBK283285]
The viability at 28.5 h, 10 µM of the first is lower: 83.1% for the first, 110% for the second.

Compared with `O=C(c1c[nH]c(=O)n(-c2ccc(F)cc2)c1=O)N1CCc2ccccc21` [CBK287554], `CC(=O)N[C@H](Cc1c[nH]c2ccccc12)C(=O)N1CCN(c2ccc(C)cc2)CC1` [CBK091333] is lower in viability at 28.5 h, 10 µM: 101% for the first, 91.1% for the second.

First: c1ccc(CC(Cc2nc3ccccc3[nH]2)c2nc3ccccc3[nH]2)cc1 (centres unmarked) [CBK150452]
Second: Cc1ccccc1-n1c(Cc2ccccc2)nc2c(cnn2-c2ccccc2)c1=O [CBK262310]
The viability at 28.5 h, 10 µM of the first is higher: 107% for the first, 91.6% for the second.

Compared with `CNC(=S)N/N=C/c1c(C)cccc1Cl` [CBK021253], `CNC(=O)c1ccc(-c2ccc(C)c(C)c2)nc1NCCOC` [CBK105999] is higher in viability at 28.5 h, 10 µM: 84.6% for the first, 96.6% for the second.

Compared with `N#Cc1c(-c2ccc(Cl)cc2)c[nH]c1N` [CBK019323], `O=C1/C(=N\O)c2cc(Cl)ccc2N1Cc1ccccc1` [CBK288468] is lower in viability at 28.5 h, 10 µM: 104% for the first, 91.5% for the second.

First: CCCC1(C)CCCN(Cc2nnnn2-c2ccc(S(C)(=O)=O)cc2)C1 (centres unmarked) [CBK304133]
Second: CS(=O)(=O)c1ccc(-n2nnnc2CNC2(CO)CCCC2)cc1 [CBK304134]
The viability at 28.5 h, 10 µM of the first is lower: 79.8% for the first, 91.8% for the second.

Compared with `COc1ccc(C=O)cc1CSc1nc2ccccc2[nH]1` [CBK266209], `COc1cc2c(cc1NC(=O)CSc1nc3ccccc3o1)oc1ccccc12` [CBK265154] is higher in viability at 28.5 h, 10 µM: 94.7% for the first, 105% for the second.

Going from `CC(C)(C)c1csc(N2CCSCC2)n1` [CBK021950] to `COc1ccc(C(C)NC2CCN(c3nc(C)cs3)CC2)cc1F` (centres unmarked) [CBK306362], the viability at 28.5 h, 10 µM falls from 119% to 94.7%.

Compared with `CCN(Cc1cnn(C)c1)[C@H]1CCO[C@@H](c2ccccc2-c2ccc(OC)cc2)C1` [CBK285854], `CCN(Cc1ccccc1)C1CCN(Cc2cccc(OC)c2)CC1` [CBK264654G] is higher in viability at 28.5 h, 10 µM: 98% for the first, 99.2% for the second.

First: O=C(NCCOc1ccc(F)cc1)c1cccc(-n2cccn2)c1 [CBK281596]
Second: COc1cc(C(O)CNC(=O)c2cnc(-c3ccc(F)cc3)c(-c3cccc(N)c3)c2)ccc1O (centres unmarked) [CBK038032]
The viability at 28.5 h, 10 µM of the first is higher: 101% for the first, 98.8% for the second.

`O=C(CN1CCN(c2cc(-c3ccc4ccccc4c3)ncn2)CC1)N1CCCC1` [CBK091064] and `N#Cc1ccccc1N1CCN(c2cncc(-c3cccs3)n2)CC1` [CBK065656] are the same in viability at 28.5 h, 10 µM: 104% for the first, 104% for the second.

First: Nc1nc2c([C@H]3C[C@@H](O)[C@@H](CO)O3)c[nH]c2c(=O)[nH]1 [CBK201194]
Second: NS(=O)(=O)c1ccc(NC(=O)CSc2nc3sc4c(c3c(=O)[nH]2)CCC4)cc1 [CBK265554]
The viability at 28.5 h, 10 µM of the first is lower: 102% for the first, 103% for the second.

Compared with `COc1cc(NC(=O)N2CCN(CCc3ccccc3)CC2)cc(OC)c1OC` [CBK158933], `COc1ccccc1OCc1ccc(C(=O)N2CCN(c3cccc(C(F)(F)F)c3)CC2)o1` [CBK074417] is lower in viability at 28.5 h, 10 µM: 100% for the first, 62.7% for the second.

Going from `O=C1NCCNC(=O)C2(C/C=C/COc3ccccc31)CCN(C(=O)CCC1CCCC1)CC2` [CBK291995] to `O=C1NCCNC(=O)C2(C/C=C/COc3ccccc31)CCCN(Cc1cscn1)C2` (centres unmarked) [CBK292125], the viability at 28.5 h, 10 µM falls from 118% to 92.2%.

Compared with `COc1cc(C2c3c(-c4cc(C)c(C)cc4O)n[nH]c3C(=O)N2CCO)cc(Br)c1O` (centres unmarked) [CBK269009], `Cc1cc(C)c2cc(C)c3nn(CC(=O)N(C)C)c(=O)n3c2c1` [CBK283821] is lower in viability at 28.5 h, 10 µM: 112% for the first, 81.8% for the second.

Going from `COc1ccc(Cl)cc1N1CCN(Cc2ccc(OC(F)(F)F)cc2)CC1` [CBK126405] to `COc1ccc(CCN2CCCCC2Cn2cncn2)cc1` (centres unmarked) [CBK305095], the viability at 28.5 h, 10 µM rises from 104% to 108%.

First: Cc1[nH]c(=O)[nH]c(=O)c1Cc1cccc2ccccc12 [CBK111494]
Second: O=c1[nH]ccn1CCNc1cc(-c2cccc3oc4ccccc4c23)ncn1 [CBK037726]
The viability at 28.5 h, 10 µM of the first is lower: 92.8% for the first, 102% for the second.

Compared with `O=C(Cc1ccccc1F)N1CCC(c2cc3cccnc3[nH]2)CC1` [CBK285035], `O=C(c1ccc2ncccc2c1)N1CCC2(CCN(C(=O)c3cc(F)c(F)cc3F)C2)C1` (centres unmarked) [CBK131391] is lower in viability at 28.5 h, 10 µM: 104% for the first, 91% for the second.

Going from `O=C(c1ncc(F)cc1F)N1CCCCC1CN1CCOCC1` (centres unmarked) [CBK305482] to `O=C(CN1CCOCC1)Nc1sc2c(c1C(=O)Nc1ccc(Br)cc1)CCC2` [CBK265073], the viability at 28.5 h, 10 µM rises from 102% to 111%.

First: Cc1c(C(=O)NCc2ccncc2)nnn1-c1cccc(C(F)(F)F)c1 [CBK107396]
Second: Cc1nc2c(C(=O)NCCOCCO)cnn2c(C)c1Cc1cccc(OC(F)(F)F)c1 [CBK167454]
The viability at 28.5 h, 10 µM of the first is lower: 88.7% for the first, 114% for the second.

First: CC(C)(C)N(Cc1ccccc1)C(=O)Cn1nc(C(=O)O)c2ccccc2c1=O [CBK297498]
Second: CC1CN(C(=O)c2ccccc2-c2ccccc2C(=O)O)CC(C)O1 (centres unmarked) [CBK286577]
The viability at 28.5 h, 10 µM of the first is lower: 86% for the first, 87.7% for the second.

Compared with `Clc1ccc(COc2cccc3c2CCCC3)cn1` [CBK002634], `c1ccc(Cn2cc(-c3nccnc3OC3CCCCC3)cn2)cc1` [CBK107092] is lower in viability at 28.5 h, 10 µM: 102% for the first, 93% for the second.

Compared with `CSCCCNC(=O)C1(c2ccccc2)CCCC1` [CBK149526], `O=C(NC1CCCC1)c1ccccc1Cl` [CBK001992] is lower in viability at 28.5 h, 10 µM: 109% for the first, 98.3% for the second.

`COC(=O)c1cc(NC(=O)NCCC2=CCCCC2)cc(C(=O)OC)c1` [CBK044120] and `CC(Oc1cccc(Br)c1)C(=O)NCCC(=O)O` (centres unmarked) [CBK268024] are the same in viability at 28.5 h, 10 µM: 90.9% for the first, 90.9% for the second.

Going from `Cc1ccc(S(=O)(=O)NCCSc2ccc(Cl)cc2)cc1[N+](=O)[O-]` [CBK264126] to `Cc1ccc(S(=O)(=O)NCCOc2ccccc2)c(C)c1NS(C)(=O)=O` [CBK268210], the viability at 28.5 h, 10 µM falls from 96.8% to 92.9%.

Going from `c1cnc(-c2nnn[nH]2)c(-c2ccc(COc3ccc4c(c3)OCO4)cc2)n1` [CBK050812] to `Cc1ccc(-c2nnc(COc3ccc(-c4cnc5ccccc5n4)cc3)o2)cc1` [CBK269721], the viability at 28.5 h, 10 µM falls from 107% to 90.9%.

Going from `Cc1ncccc1C(=O)NC(Cc1cccs1)c1nccs1` (centres unmarked) [CBK285153] to `O=C(c1ccco1)N1CCN(c2cncc(-c3cccs3)n2)CC1` [CBK065518], the viability at 28.5 h, 10 µM rises from 91.4% to 114%.

First: Cc1c(Nc2nc3nonc3nc2Nc2cccc(Cl)c2)c(=O)n(-c2ccccc2)n1C [CBK263073]
Second: Cc1cc(NC(=O)CSc2ccc3nnc(-c4ccccc4)n3n2)no1 [CBK287518]
The viability at 28.5 h, 10 µM of the first is higher: 103% for the first, 94.8% for the second.

Compared with `Cc1cccc(CN(CCCN)C(=O)Nc2ccc(C(C)(C)C)cc2)n1` [CBK033365C], `CCc1nc2c(OCc3ccccc3)cccn2c1N(Cc1ccc(OC)cc1)C(C)=O` [CBK147887] is lower in viability at 28.5 h, 10 µM: 98.3% for the first, 89.8% for the second.

Compared with `Cc1cccn2c(=O)cc(CN3CCC(n4ccnc4)CC3)nc12` [CBK305519], `Oc1cccc2ccc(-n3ccnc3)nc12` [CBK017812] is lower in viability at 28.5 h, 10 µM: 92.3% for the first, 79.3% for the second.

Compared with `O=C(Nc1cncc(N2CCNCC2)n1)c1coc2c1C(=O)CCC2` [CBK004229T], `O=C(Nc1ccccc1N1CCCNCC1)c1ccnc2ccccc12` [CBK036325T] is lower in viability at 28.5 h, 10 µM: 96.8% for the first, 83.4% for the second.

Going from `CC(C)Cc1cc(CNC(=O)C(C)n2cc(Cl)cn2)on1` (centres unmarked) [CBK281524] to `CC(C)CC(=O)N[C@@H](C)Cn1nc(-c2cccs2)oc1=O` [CBK284336], the viability at 28.5 h, 10 µM falls from 92.8% to 82.4%.

Compared with `O=C(O)c1ccc(N2CCCCS2(=O)=O)cc1Cl` [CBK287142], `O=C(Nc1ccc(Cl)cc1Cl)C1CC2CCC1C2` (centres unmarked) [CBK058237] is higher in viability at 28.5 h, 10 µM: 84.5% for the first, 102% for the second.

Compared with `CN1C(=O)C2(CC(=O)N(CCC3CCCCC3)C2=O)c2ccccc21` (centres unmarked) [CBK075461], `CC(C)CN1C(=O)COC[C@@H]1[C@H](O)c1ccc(NC(=O)C2CCCCC2)cc1` [CBK289687] is lower in viability at 28.5 h, 10 µM: 109% for the first, 106% for the second.

First: CCCc1cc(C(=O)NC2(CN3CCCC3)CCCCC2)[nH]n1 [CBK282464]
Second: C=C(C)CN1CCN(C(=O)c2[nH]c3ccc(OCC)cc3c2C)CC1 [CBK282666]
The viability at 28.5 h, 10 µM of the first is higher: 98.1% for the first, 96.7% for the second.

Compared with `COc1ccc(-c2cn(-c3ccc4c(c3)CCO4)nn2)cc1` [CBK113027], `COc1ccc(Nc2nc(-c3cccc(-c4ccccc4)c3)cnc2N)cc1` [CBK063593] is higher in viability at 28.5 h, 10 µM: 88.5% for the first, 89.8% for the second.

Compared with `O=c1[nH]c2ncc(-c3cccc(Br)c3)nc2n1CCc1cccnc1` [CBK064457], `Nc1ncc(-c2cccc(O)c2)nc1NCc1ccco1` [CBK063675] is lower in viability at 28.5 h, 10 µM: 103% for the first, 92.1% for the second.

Going from `Cc1ccnc(NS(=O)(=O)c2ccc(NS(=O)(=O)c3ccc(F)cc3)cc2)n1` [CBK051024] to `O=C(Nc1ccccc1C(=O)O)c1cc(S(=O)(=O)Nc2cccc([N+](=O)[O-])c2)ccc1Cl` [CBK263234], the viability at 28.5 h, 10 µM falls from 102% to 90.3%.

Compared with `O=C(c1ccc(F)cc1)N1C2CCC1CC(O)(c1ccccc1F)C2` (centres unmarked) [CBK121719], `CCOC(=O)c1ccc(/N=C2/NC(=O)/C(=C\c3ccccc3OCC(=O)O)S2)cc1` [CBK265658] is lower in viability at 28.5 h, 10 µM: 102% for the first, 101% for the second.

First: COc1ccc(CCNc2c(Cc3ccccc3)c(C)c(C#N)c3nc4ccccc4n23)cc1OC [CBK263135]
Second: CCCC(C(=O)O)N1C(=O)C(=Cc2ccc(-c3ccc(C(=O)OCC)cc3)o2)SC1=S (centres unmarked) [CBK296983]
The viability at 28.5 h, 10 µM of the first is higher: 93% for the first, 80.6% for the second.

Going from `NS(=O)(=O)c1ccc(NC(=S)NCCN2CCOCC2)cc1` [CBK265818] to `O=C(c1ccc(-c2nccnc2NCc2ccco2)cc1)N1CCOCC1` [CBK036920], the viability at 28.5 h, 10 µM falls from 107% to 98.6%.

Compared with `CN1CCc2c(C#N)c(N)n(N)c(=S)c2C1` [CBK264055], `Cc1nc(C)n(CC2CCCN(Cc3cc(C#N)cs3)C2)n1` (centres unmarked) [CBK304787] is lower in viability at 28.5 h, 10 µM: 101% for the first, 92% for the second.

Compared with `O=[N+]([O-])c1cnc(NS(=O)(=O)c2ccc(Br)cc2C(F)(F)F)s1` [CBK067541], `CCCNS(=O)(=O)c1cc(C(=O)O)ccc1OC` [CBK287152] is lower in viability at 28.5 h, 10 µM: 99.6% for the first, 98% for the second.

Going from `COc1ccc2ncc3c(c2c1)NCCNC3=O` [CBK291168] to `O=C(NCc1csc(-c2ccccc2)n1)C1CC=CCC1` (centres unmarked) [CBK092348], the viability at 28.5 h, 10 µM rises from 88.4% to 94.4%.

same assay, conditions: human, hela cells, % viability, bulk resorufin, single well

Compound `CCNC(=S)N1CCN(CCNC=C2C(=O)NC(=O)NC2=O)CC1` [CBK265228] has a viability at 28.5 h, 10 µM of 111%.
